SMILES strings stand for the structures.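 Assay format: 96-well plates, 48-hour exposure. Here, GI50 denotes the concentration required for 50% inhibition of growth.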 The source made the active and inactive calls. No stated cut-off is given here; in the data, active = GI50 up to about 1.1 µM and inactive = higher.

Holding throughout (test): inhibition of tumour cell growth, NCI panel, 48 h
In test [1] the test system is K562.
In test [2] the test system is HCT-15.
The subject of test [3] is Malme-3M.
Test [4] has as its system HOP-62.
The subject of test [5] is CCRF-CEM.
For test [6], the system named is SF-268.
The test system of test [7] is SK-OV-3.
The subject of test [8] is UACC-62.
Test [9] relates to Hs-578T.
For test [10], the system named is SW-620.
Test [11] relates to HT-29.
Test [12] has as its system HCC 2998.
In test [13] the test system is A549.
Test [14] has as its system OVCAR-4.
The subject of test [15] is HL-60.
Test [16] relates to MDA-MB-435.
Test [17] relates to SF-539.
The subject of test [18] is BT-549.
For test [19], the system named is MDA-MB-231.
Test [20] deals with IGROV-1.

`CCNC(=S)NNC(=O)CSc1nc2ccc(I)cc2c(=O)n1Cc1ccccc1`: the GI50 in test [1] was 10.6 µM (inactive); in test [2], 14.7 µM; in [3], 23.9 µM (inactive); in test [4], 35.8 µM (inactive); in test [5] it was 7.98 µM (inactive); in [6], 31.9 µM (inactive). Besides, the GI50 is 35 µM (inactive) in test [7]; > 27.6 µM (inactive) in test [8]; 29.7 µM (inactive) in [9]; 37.8 µM (inactive) in [10]; 18.1 µM (inactive) in test [11]; 17.6 µM (inactive) in test [12]. The GI50 in test [13] is 25.5 µM (inactive); in test [14], 10.8 µM (inactive); in test [15] it was 1.81 µM (inactive); in [16], 12.9 µM (inactive); in test [17] it was 45.8 µM (inactive); in test [18], > 54.1 µM (inactive). In addition, the GI50 in test [19] was 41.5 µM (inactive); in test [20] it was 14.6 µM (inactive).

As for `Cc1cc(=O)oc2c(C)c3oc(CBr)c(Br)c3cc12`, the GI50 in test [1] is 19.6 µM (inactive); in test [2] it was 30.1 µM; in test [3], > 10 µM (inactive); in test [4], 27 µM (inactive); in test [5], 10.4 µM (inactive); in test [6], 25.6 µM (inactive). Also, the GI50 in test [7] was 43.3 µM (inactive); in test [8] it was 17.5 µM (inactive); in test [9], 44.1 µM (inactive); in test [10], 16.9 µM (inactive); in test [11], 39.2 µM (inactive); in [12], 19.3 µM (inactive). For the same molecule, the GI50 in [13] was 17.4 µM (inactive); in test [14], 28.5 µM (inactive); in test [15], 85.1 µM (inactive); in [16], 43.3 µM (inactive); in [17] it was 37.6 µM (inactive); in [18] it was 29.3 µM (inactive). The GI50 in [19] was 87.3 µM (inactive); in [20], 17.7 µM (inactive).

Turning to `COc1ccc2c(cnc3c4cc(OC)c(OC)cc4ccc23)c1`, the GI50 in test [1] was > 100 µM (inactive); in [2], over 100 µM; in test [3], > 100 µM (inactive); in test [4] it was > 100 µM (inactive); in test [5], > 100 µM (inactive); in [6], > 100 µM (inactive). The GI50 in test [7], in test [8], in test [9], in test [10], in test [11] and in test [12] was > 100 µM (inactive) in each case. The GI50 in [13], in test [14], in [15], in [16], in [17] and in [18] was > 100 µM (inactive) in each case. Besides, the GI50 in [19] and in test [20] was > 100 µM (inactive) in each case.

As for `C=C1C(=O)OC2C1CC(OC(C)=O)/C(C)=C/CCC1(C)OC21` (configuration not stated), the GI50 in test [1] was > 100 µM (inactive); in test [2], over 100 µM; in test [3], > 100 µM (inactive); in test [5], > 100 µM (inactive); in test [6] it was > 100 µM (inactive); in test [7], > 100 µM (inactive). Also, the GI50 in [8], in test [9], in test [10], in [11], in test [12] and in test [13] was > 100 µM (inactive) throughout. In addition, the GI50 in test [14], in test [15], in test [16], in [17], in test [18] and in test [19] was > 100 µM (inactive) each time. In addition, the GI50 in [20] is > 100 µM (inactive).

Consider `C=C(CN(C)C)C(=O)c1cc(C)ccc1C`, for which the GI50 in test [1] is 0.791 µM (active); in test [2], 4.13 µM; in test [3] it was 2.5 µM (inactive); in test [4] it was 18.7 µM (inactive); in test [5], 0.345 µM (active); in [6], 20.3 µM (inactive). The GI50 is 18.4 µM (inactive) in test [7]; 10.5 µM (inactive) in test [8]; 28.7 µM (inactive) in [9]; 1.82 µM (inactive) in test [10]; 11 µM (inactive) in [11]; 15.8 µM (inactive) in test [12]. The GI50 is 19.7 µM (inactive) in test [13]; 9.75 µM (inactive) in test [14]; 0.232 µM (active) in test [15]; 8.45 µM (inactive) in [16]; 8.91 µM (inactive) in test [17]; 10.2 µM (inactive) in test [18]. Further, the figures for the GI50 in test [19] and in test [20] were 8.83 µM (inactive) and 18 µM (inactive), respectively.

`CCSSCS(C)(=O)=O`: the GI50 was 3.88 µM (inactive) in test [1]; 8.02 µM in [2]; 77.3 µM (inactive) in test [3]; 39.3 µM (inactive) in test [4]; 3.9 µM (inactive) in test [5]; 44.5 µM (inactive) in [6]. In addition, the GI50 was 56.6 µM (inactive) in test [7]; 60.5 µM (inactive) in test [8]; 43.5 µM (inactive) in test [9]; 5.05 µM (inactive) in [10]; 30.4 µM (inactive) in test [11]; 18.9 µM (inactive) in [12]. Besides, the GI50 was 36.7 µM (inactive) in [13]; 17.8 µM (inactive) in test [14]; 11.9 µM (inactive) in test [15]; 22.6 µM (inactive) in test [16]; 8.81 µM (inactive) in test [17]; 32.1 µM (inactive) in test [18]. Moreover, the GI50 in test [19] was 89.1 µM (inactive).

For `CCCC[N+](CCCC)(CCCC)CCCC.O=S(=O)([O-])ON=C1c2ccccc2-c2ccccc21`, the GI50 in [1] was > 100 µM (inactive); in [2] it was 10 µM; in test [4], > 100 µM (inactive); in test [5], > 100 µM (inactive); in test [6], > 100 µM (inactive); in test [7] it was > 100 µM (inactive). Moreover, the GI50 in test [8], in test [9], in [10], in [11], in test [12] and in test [13] was > 100 µM (inactive) in each case. The GI50 in test [14] was > 100 µM (inactive); in [15] it was 36 µM (inactive); in [16], > 100 µM (inactive); in [17], > 100 µM (inactive); in [18], > 100 µM (inactive); in test [19] it was > 100 µM (inactive). Besides, the GI50 in test [20] is > 100 µM (inactive).

As to `COc1cc(Oc2nc3c(N)cc(C(F)(F)F)cc3nc2-c2ccccc2)cc(OC)c1OC`, the GI50 in test [1] was 1.23 µM (inactive); in test [2], 3.53 µM; in test [3], 0.869 µM (active); in test [4], 3.29 µM (inactive); in test [5], 4.9 µM (inactive); in [6] it was 4.66 µM (inactive). Moreover, the GI50 was 4.53 µM (inactive) in [7]; 1.66 µM (inactive) in test [8]; 3.69 µM (inactive) in [9]; 3.07 µM (inactive) in test [10]; 1.49 µM (inactive) in test [11]; 5.36 µM (inactive) in test [12]. Besides, the GI50 in test [13] was 5 µM (inactive); in test [14] it was 19.2 µM (inactive); in test [15] it was 1.16 µM (inactive); in test [16] it was 0.445 µM (active); in test [17], 3.4 µM (inactive); in test [18], 4.03 µM (inactive). Moreover, the GI50 is 10.2 µM (inactive) in test [19] and 0.916 µM (active) in test [20].

Consider `COc1ccccc1NC(=S)N/N=C/c1cccc(C)n1`, for which the GI50 in test [1] is 1.27 µM (inactive); in [2], 2.31 µM; in test [3] it was 6.24 µM (inactive); in test [4], 5.85 µM (inactive); in test [5], 0.422 µM (active); in [6] it was 6.97 µM (inactive). Also, the GI50 in test [7] is 6.55 µM (inactive); in [8], 3.67 µM (inactive); in [9], 11.5 µM (inactive); in test [10] it was 3.14 µM (inactive); in [11], 4.17 µM (inactive); in [12], 10.5 µM (inactive). Further, the GI50 was 4.16 µM (inactive) in [13]; 14.2 µM (inactive) in test [14]; 3.15 µM (inactive) in [15]; 5.16 µM (inactive) in test [16]; 4.89 µM (inactive) in [17]; 15.1 µM (inactive) in test [18]. The results for the GI50 in test [19] and in test [20] were 3.52 µM (inactive) and 4.06 µM (inactive), respectively.

Take `O=C1/C(=C/c2ccc(O)cc2)CC/C1=C\c1ccc(O)cc1`: the GI50 is > 100 µM (inactive) in [1]; over 100 µM in [2]; > 72.6 µM (inactive) in test [3]; > 61.8 µM (inactive) in test [4]; 1.52 µM (inactive) in test [5]; > 95.1 µM (inactive) in test [6]. The GI50 in test [7] was > 100 µM (inactive); in [8], 13.3 µM (inactive); in test [9] it was > 100 µM (inactive); in [10], > 100 µM (inactive); in test [11], > 100 µM (inactive); in [12], > 100 µM (inactive). For the same molecule, the GI50 in test [13] is > 95.1 µM (inactive); in [14] it was > 64.3 µM (inactive); in test [15], 0.458 µM (active); in [16], > 100 µM (inactive); in test [17], 22.6 µM (inactive); in test [18], > 100 µM (inactive). Further, the GI50 in [19] and in test [20] was > 100 µM (inactive) in each case.

The values are drawn from ChEMBL document CHEMBL1201862, “PubChem BioAssay data set” (2004).
